Experiment: in vitro
Details: human, hela cells, % viability

Going from `COc1ccc(-c2nnc3ccc(SCc4ccccn4)nn23)cc1OC` [CBK287528] to `Cc1ccc(C(NC(=O)CC(C)C)c2ccc3cccnc3c2O)cc1` (centres unmarked) [CBK293943], the viability at 28.5 h, 10 µM falls from 97.4% to 89.3%.

Compared with `N#Cc1ccc(Oc2ccc(C(=O)C(=O)c3ccccc3)cc2)cc1C#N` [CBK260959], `O=C(COC(=O)c1ccncc1)c1ccc(OC(=O)c2ccccc2)cc1` [CBK265169] is lower in viability at 28.5 h, 10 µM: 100% for the first, 87.3% for the second.

First: O=C(c1cc2c(s1)CCC2)N1CCc2c(nc[nH]c2=O)C1 [CBK283703]
Second: O=C(Cn1cnc2ccc(F)cc2c1=O)N1CCOC2CCCCC21 (centres unmarked) [CBK253316]
The viability at 28.5 h, 10 µM of the first is higher: 101% for the first, 80.5% for the second.

First: OC1CCC(Nc2cncc(-c3ccc4ccccc4c3)n2)CC1 (centres unmarked) [CBK065463]
Second: CC(Nc1nc(N2CCNCC2)nc2ccccc12)c1ccccc1 (centres unmarked) [CBK266475]
The viability at 28.5 h, 10 µM of the first is lower: 91.7% for the first, 102% for the second.

Compared with `Cc1ccc(C(=O)NCCN2CCOCC2)c(N2CCN(C(=O)c3ccco3)CC2)n1` [CBK076312], `Cc1ccc(S(=O)(=O)NC[C@H]2C[C@@H]3CC[N@]2C[C@@H]3CN2CCOCC2)cc1` [CBK288758] is lower in viability at 28.5 h, 10 µM: 101% for the first, 94.2% for the second.

Compared with `NC(=O)C1CCN(C(=O)C2=NN(c3ccccc3)C(c3ccccc3)C2)CC1` (centres unmarked) [CBK296760], `O=C(C[C@@H]1CCNC[C@@H]1Cc1cc(-c2ccccc2)on1)N1CCN(c2ccccn2)CC1` [CBK289150] is lower in viability at 28.5 h, 10 µM: 99.1% for the first, 81% for the second.

First: Cc1nn(-c2ccccc2)c(C)c1CNC(=O)C1C2C=CC(C2)C1C(=O)O (centres unmarked) [CBK286877]
Second: O=[N+]([O-])c1nn(-c2ccccc2)[n+]([O-])c1Nc1ccc(Br)cc1 [CBK268504]
The viability at 28.5 h, 10 µM of the first is lower: 90.4% for the first, 98.7% for the second.

Compared with `COC(=O)c1sc2ncccc2c1NS(=O)(=O)c1cc(Br)c(Cl)s1` [CBK049973], `COc1ccc(NC(=O)C2CC(=O)NC3=C2C(=O)CC(c2ccco2)C3)cc1` (centres unmarked) [CBK270282] is lower in viability at 28.5 h, 10 µM: 112% for the first, 90.6% for the second.

Going from `O=C(NCc1cccs1)OCc1ccccc1` [CBK008074] to `CCN(CC)c1ccc(NC(=O)COc2ccccc2)cc1` [CBK096048], the viability at 28.5 h, 10 µM falls from 96.6% to 91.9%.

Compared with `O=C(O)CCSc1cccc(C(F)(F)F)c1` [CBK012986], `O=C(O)c1ccc(CN2CCOC[C@H]2c2nc(-c3ccc(C(F)(F)F)cc3)c[nH]2)cc1` [CBK289317] is higher in viability at 28.5 h, 10 µM: 111% for the first, 115% for the second.

Compared with `CCc1cnccc1C(=O)N1CCC(NC(=O)c2cnn(C)c2)CC1` [CBK305388], `CCc1n[nH]c(C(=O)N/N=C/c2cccnc2)c1C` [CBK263386] is lower in viability at 28.5 h, 10 µM: 105% for the first, 90.4% for the second.

First: CCN(CC)C(=O)c1c(F)ccc(F)c1C(=O)O [CBK022303]
Second: O=C(O)c1ccccc1SC(C[N+](=O)[O-])c1ccccc1Cl (centres unmarked) [CBK097071]
The viability at 28.5 h, 10 µM of the first is lower: 85% for the first, 95.6% for the second.

Going from `c1ccc(CCCN2CCN(Cc3ccccn3)CC2)cc1` [CBK263461G] to `Cc1ccc(S(=O)(=O)N2CCN(C(c3ccccc3)c3ccccc3)CC2)cc1[N+](=O)[O-]` [CBK293949], the viability at 28.5 h, 10 µM rises from 91.6% to 103%.

First: NCCNCCCCOc1ccc(Cl)c(Cl)c1 [CBK265059]
Second: Clc1ccccc1CSc1nc[nH]n1 [CBK026950]
The viability at 28.5 h, 10 µM of the first is higher: 109% for the first, 98.5% for the second.

Compared with `CC(=O)N1c2ccc(C(O)CN3CCCC(C)C3)cc2CC1C` (centres unmarked) [CBK282922], `CC(=O)N1CCN(C(=O)C2C(C(=O)O)C2(C)C)CC1` (centres unmarked) [CBK287021] is higher in viability at 28.5 h, 10 µM: 96.5% for the first, 102% for the second.

Going from `NC(=O)C1(N2CCCCC2)CCN(C(=S)Nc2ccc(S(N)(=O)=O)cc2)CC1` [CBK265900] to `COCc1cn(C[C@H]2CC3CCN2C[C@@H]3C(=O)NC2CC2)nn1` (some centres unmarked) [CBK288835], the viability at 28.5 h, 10 µM rises from 90.5% to 98.6%.

Compared with `N#Cc1ccccc1CSc1nnc(Cc2cccc3ccccc23)n1-c1ccccc1` [CBK266633], `COc1ccc2[nH]c(=O)c(CNc3ccc(CCc4nc5ccccc5n4C)cc3)cc2c1` [CBK286162] is lower in viability at 28.5 h, 10 µM: 89.7% for the first, 87.9% for the second.

Same assay, conditions: human, hela cells, % viability, bulk resorufin, single well

Work on `COc1ccc(Cn2nc(C(=O)NCc3ccco3)c3ccccc32)cc1` [CBK047883] yielded a viability at 28.5 h, 10 µM of 63.3%.

From publication PMC12040169 (PLOS Biology, 2025)
